One experiment has as its system FaDu xenograft. The experiment in a line: FaDu xenograft model, radiation combination (Assay i). It counts as in vivo, mouse. Conditions: total IR 30 Gy (3 cycles), combo with IR. The procedure:
Assay i): FaDu Xenograft Model
Cell culture: FaDu tumor cells were cultured in an EMEM medium containing inactivated 10% fetal bovine serum, 100 U/ml penicillin and 100 μg/ml streptomycin in a 37° C., 5% CO2 incubator.
Inoculation and grouping: Xenografts were established by implantation of 100 μl of Fadu tumor cell suspension (5×10^6 cells/mouse) subcutaneously into the right flank of female immune-compromised BALB/c nude mice at least 6 weeks of age. Tumours were measured in two dimensions with calipers and the tumour volume was calculated using the following formula: tumor volume=(length×width^2)×0.5. When the average tumor volume reached 100 to 150 mm^3, tumour-bearing mice were randomized into treatment groups.
Treatment and tumor assessment: Animals received 3 to 6 cycles of treatment with compounds combined with radiation therapy. Each cycle included 5 consecutive treatment day plus 2 days' rest. Ionizing radiation was administered using a fractionated schedule of 2 Gy per day administered over 5 consecutive days (total radiation dose=10 Gy/cycle). Compound was given orally 10 minutes before irradiation. The tumour volume and body weight of the mice were measured twice weekly.
Statistical Analysis: The One-Way ANOVA test was used for statistical analysis of tumor volume between groups, and p<0.05 was considered as a significant difference.

Experiment [1] addresses ATM (phospho-ATM Ser1981) in SN38 treated HT-29 cells (Homo sapiens (Human), UniProt Q13315). The experiment in a line: cell-based. Conditions: HT-29 cells, SN-38; read-out: SN-38 HT-29 cellular IC50. The procedure:
Assay g): ATM SN-38 HT-29 Cellular Potency
SN38 causes single strand DNA breaks (SSBs) which are converted to double strand breaks (DSBs) during replication. ATM plays role of repairing DSBs. Inhibition of ATM was evaluated in SN38 treated HT-29 cells (ATCC, Cat #HTB-38) by high-Content Imaging System
The graphical views were then generated using Prism 7.0 (Graphpad).

The target of a further experiment is ATM (Homo sapiens (Human), UniProt Q13315). Nature of the experiment: biochemical. It counts as biochemical. Conditions: read-out: ATM IC50. An excerpt: Assay a): ATM Biochemical Potency
Data was collected by Caliper.

Experiment [2] deals with phosp-KAP1 in MCF-7 cells. Nature of the experiment: phosp-KAP1 MCF-7 cellular potency assay (Assay f). Conditions: Homo sapiens. It counts as cell-based. The procedure:
Assay f): phosp-KAP1 MCF-7 Cellular Potency
MCF-7 cells were seeded to a 384-well cell-culture plate, 25 μl/well which were incubated at 37° C. and 5% CO2 for 24 hr. Test compounds were added to the 384-well plates. Etoposide at final concentration of 100 μM was then added to each well except Vehicle control wells, which were incubated at 37° C. and 5% CO2 for 1 hour. After medium removal, cells were fixed by the addition of 25 μl/well of 8% paraformaldehyde in PBSA and incubated for 20 minutes at room temperature. After the plates were rinsed 3 times with PBSA, 50 ul permeabilization buffer (0.1% Triton X-100 in PBS) was added and the plates were incubated for 20 minutes at room temperature. After the plates were rinsed with PBSA, block the cells by adding 50 μl of Odyssey Blocking Buffer in 384-well plate and then incubate for 1.5 hours at room temperature. Remove blocking buffer by Plate washer (BioTek ELx405 select CW). […] The plates were rinsed 5 times with PBST (0.1% Tween-20 in PBS).
• 1) Fluorescence intensity (FI) was detected for each well. • 2) % inhibition is calculated as follow:
[formula] • FIpositive: The average FI for the positive controls across the plate. • FIvehicle: The average FI for negative controls across the plate. • 3) Calculate IC50 and Plot effect-dose curve of compounds: • Calculate IC50 by fitting % inhibition values and log of compound concentrations to nonlinear regression (dose response−variable slope) with Graphpad prism 6.0.
Y=Bottom+(Top−Bottom)/(1+10^((Log IC50−X)*HillSlope)) • X: log of compounds concentration; Y: % inhibition

Setting [3] is: MCF7, MCF-7 cells, etoposide, read-out: Etoposide MCF-7 cellular IC50.
The mark [4] stands for this setting: MCF7, read-out: Etoposide MCF-7 cellular IC50.

SMILES strings stand for the structures. Read-outs that look alike come from different tables or passages of the source.

Sequence of ATM (phospho-ATM Ser1981) in SN38 treated HT-29 cells (Q13315 whole entry, looked up): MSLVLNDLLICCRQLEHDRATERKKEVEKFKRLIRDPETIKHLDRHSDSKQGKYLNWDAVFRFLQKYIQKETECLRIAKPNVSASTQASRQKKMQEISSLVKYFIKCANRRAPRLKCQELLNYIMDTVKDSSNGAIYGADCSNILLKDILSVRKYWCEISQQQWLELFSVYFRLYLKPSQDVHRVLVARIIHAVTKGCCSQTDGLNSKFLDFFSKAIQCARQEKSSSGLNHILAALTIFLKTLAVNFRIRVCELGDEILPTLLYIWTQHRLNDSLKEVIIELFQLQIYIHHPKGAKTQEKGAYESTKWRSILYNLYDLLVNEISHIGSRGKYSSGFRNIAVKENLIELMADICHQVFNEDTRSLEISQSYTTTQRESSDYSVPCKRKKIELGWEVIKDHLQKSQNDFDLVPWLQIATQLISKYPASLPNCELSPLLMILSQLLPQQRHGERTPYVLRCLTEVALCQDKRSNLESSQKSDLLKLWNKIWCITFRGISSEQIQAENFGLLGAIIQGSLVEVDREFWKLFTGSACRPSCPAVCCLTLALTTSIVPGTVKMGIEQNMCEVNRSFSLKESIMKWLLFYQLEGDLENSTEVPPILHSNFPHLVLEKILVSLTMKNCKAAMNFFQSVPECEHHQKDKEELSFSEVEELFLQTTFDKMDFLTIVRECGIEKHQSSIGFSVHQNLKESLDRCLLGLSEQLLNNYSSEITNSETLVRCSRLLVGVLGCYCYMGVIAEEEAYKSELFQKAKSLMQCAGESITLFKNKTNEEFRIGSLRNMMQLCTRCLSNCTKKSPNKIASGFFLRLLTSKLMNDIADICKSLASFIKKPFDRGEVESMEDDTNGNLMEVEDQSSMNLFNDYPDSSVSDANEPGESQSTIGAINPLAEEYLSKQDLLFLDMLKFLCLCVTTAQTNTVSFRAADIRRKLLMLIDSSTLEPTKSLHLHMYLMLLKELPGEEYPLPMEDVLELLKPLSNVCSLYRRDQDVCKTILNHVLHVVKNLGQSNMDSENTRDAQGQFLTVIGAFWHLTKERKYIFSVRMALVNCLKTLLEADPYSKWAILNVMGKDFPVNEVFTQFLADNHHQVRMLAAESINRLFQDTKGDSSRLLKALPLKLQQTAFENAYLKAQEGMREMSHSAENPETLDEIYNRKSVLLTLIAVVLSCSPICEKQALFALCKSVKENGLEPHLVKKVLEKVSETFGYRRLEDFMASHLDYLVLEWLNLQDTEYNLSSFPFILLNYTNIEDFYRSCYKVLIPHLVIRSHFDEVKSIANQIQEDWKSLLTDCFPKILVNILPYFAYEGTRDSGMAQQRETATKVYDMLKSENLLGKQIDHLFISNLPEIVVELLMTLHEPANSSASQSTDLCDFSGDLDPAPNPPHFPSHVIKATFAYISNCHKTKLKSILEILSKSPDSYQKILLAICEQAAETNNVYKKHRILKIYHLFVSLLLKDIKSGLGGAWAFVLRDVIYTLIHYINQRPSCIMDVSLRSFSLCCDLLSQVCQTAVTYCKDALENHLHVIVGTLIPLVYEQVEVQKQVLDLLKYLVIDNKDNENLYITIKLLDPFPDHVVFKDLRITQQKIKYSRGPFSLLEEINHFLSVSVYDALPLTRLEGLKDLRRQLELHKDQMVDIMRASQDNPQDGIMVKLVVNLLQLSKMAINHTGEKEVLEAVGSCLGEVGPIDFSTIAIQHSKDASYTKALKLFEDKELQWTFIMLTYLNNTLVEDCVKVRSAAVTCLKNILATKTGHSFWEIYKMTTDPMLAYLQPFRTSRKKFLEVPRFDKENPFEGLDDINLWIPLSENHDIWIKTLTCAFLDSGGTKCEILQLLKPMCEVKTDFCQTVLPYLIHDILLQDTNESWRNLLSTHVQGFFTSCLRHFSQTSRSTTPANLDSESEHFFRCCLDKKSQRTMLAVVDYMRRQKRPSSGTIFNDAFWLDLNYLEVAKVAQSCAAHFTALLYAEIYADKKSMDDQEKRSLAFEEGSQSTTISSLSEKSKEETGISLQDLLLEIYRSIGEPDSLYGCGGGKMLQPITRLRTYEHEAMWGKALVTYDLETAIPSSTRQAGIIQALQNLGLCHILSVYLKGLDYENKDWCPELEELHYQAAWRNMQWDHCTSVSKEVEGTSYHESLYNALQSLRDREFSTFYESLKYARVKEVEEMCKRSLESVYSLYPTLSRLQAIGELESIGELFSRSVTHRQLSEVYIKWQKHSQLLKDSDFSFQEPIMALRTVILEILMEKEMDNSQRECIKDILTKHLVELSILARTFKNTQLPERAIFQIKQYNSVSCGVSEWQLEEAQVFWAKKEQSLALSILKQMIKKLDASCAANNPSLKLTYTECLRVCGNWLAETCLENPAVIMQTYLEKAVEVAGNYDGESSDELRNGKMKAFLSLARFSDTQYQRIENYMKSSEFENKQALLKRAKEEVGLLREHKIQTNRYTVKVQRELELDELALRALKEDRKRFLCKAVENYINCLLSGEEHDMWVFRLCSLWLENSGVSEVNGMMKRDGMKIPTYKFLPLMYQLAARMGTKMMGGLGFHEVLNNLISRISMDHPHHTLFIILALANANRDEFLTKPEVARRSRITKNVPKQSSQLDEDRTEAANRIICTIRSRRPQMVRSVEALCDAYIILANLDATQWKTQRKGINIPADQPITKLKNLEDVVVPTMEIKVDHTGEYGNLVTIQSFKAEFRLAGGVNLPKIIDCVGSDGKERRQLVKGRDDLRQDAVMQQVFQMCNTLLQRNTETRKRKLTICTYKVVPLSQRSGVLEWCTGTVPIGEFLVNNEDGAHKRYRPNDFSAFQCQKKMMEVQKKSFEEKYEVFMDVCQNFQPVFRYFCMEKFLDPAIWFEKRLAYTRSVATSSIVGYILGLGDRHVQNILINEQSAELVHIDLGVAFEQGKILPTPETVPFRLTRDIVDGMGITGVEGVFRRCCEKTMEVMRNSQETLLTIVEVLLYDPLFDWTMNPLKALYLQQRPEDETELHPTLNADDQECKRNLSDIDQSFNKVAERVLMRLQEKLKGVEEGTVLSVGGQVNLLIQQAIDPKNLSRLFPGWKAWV
Sequence of ATM (Q13315 whole entry, looked up): as above

Take `CC(C)n1c(=O)n(C)c2nnc3ccc(-c4ccc(COCCN5CCC(F)CC5)nc4)cc3c21` [Example 5, 8-(6-((2-(4-fluropiperidin-1-yl)ethoxy)methyl)pyridin-3-yl)-1-isopropyl-3-methyl-1H-imidazo[4,5-c]cinnolin-2(3H)-one]: the “Inhibition (% TGI) Combo” value was determined as 79.6 ± 2.78 % TGI with FaDu xenograft (50 mg/kg PO. TID) and 91.9 ± 1.16 % TGI in the experiment with FaDu xenograft (150 mg/kg PO. TID). Also, the values for the IC50 (in experiment [1]; on ATM; in experiment [2] (setting [3])) were 0.13 µM, 0.014 µM and 0.027 µM, respectively.

Consider `CC(C)n1c(=O)n(C)c2nnc3ccc(-c4ccc(COCCN5CCC(C)(C)C5)nc4)cc3c21` [Example 36, 8-(6-((2-(3,3-dimethylpyrrolidin-1-yl)ethoxy)methyl)pyridin-3-yl)-1-isopropyl-3-methyl-1H-imidazo[4,5-c]cinnolin-2(3H)-one], for which the IC50 (as a rule, the concentration at which inhibition is half-maximal) in experiment [1] stood at 0.02 µM; at ATM it was 0.0047 µM; in experiment [2] (setting [4]), 0.02 µM.

`CC(C)n1c(=O)n(C)c2nnc3cc(F)c(-c4ccc(COCCN5CCC(F)CC5)nc4)cc3c21` [Ref compd 1, 7-fluoro-8-(6-((2-(4-fluoropiperidin-1-yl)ethoxy)methyl)pyridin-3-yl)-1-isopropyl-3-methyl-1H-imidazo[4,5-c]cinnolin-2(3H)-one, reference compound]: the IC50 in experiment [1] was 0.273 µM; at ATM, 0.025 µM.

Regarding `CO[C@H]1C[C@@H](n2c(=O)n(C)c3nnc4ccc(-c5ccc(COCCN6CC7CC7C6)nc5)cc4c32)C1` (stereo partly drawn) [Example 175, 8-(6-((2-(3-azabicyclo[3.1.0]hexan-3-yl)ethoxy)methyl)pyridin-3-yl)-1-(cis-3-methoxycyclobutyl)-3-methyl-1H-imidazo[4,5-c]cinnolin-2(3H)-one], the values for the IC50 (in experiment [1]; at ATM; in experiment [2] (setting [3])) were 0.17 µM, 0.025 µM and 0.033 µM, respectively.

Turning to `CO[C@H]1CCN(CCOCc2ccc(-c3ccc4nnc5c(c4c3)n(C(C)C)c(=O)n5C)cn2)C1` [Example 43, (S)-1-isopropyl-8-(6-((2-(3-methoxypyrrolidin-1-yl)ethoxy)methyl)pyridin-3-yl)-3-methyl-1H-imidazo[4,5-c]cinnolin-2(3H)-one], the IC50 stood at 0.092 µM in experiment [1] and 0.012 µM at ATM.

For `C[C@@H](OCCN1CCC2(CCC2)C1)c1ccc(-c2ccc3nnc4c(c3c2)n(C2CCOCC2)c(=O)n4C)cn1` [Example 118, (R)-8-(6-(1-(2-(6-azaspiro[3.4]octan-6-yl)ethoxy)ethyl)pyridin-3-yl)-3-methyl-1-(tetrahydro-2H-pyran-4-yl)-1H-imidazo[4,5-c]cinnolin-2(3H)-one], the figures for the IC50 (at ATM; in experiment [2] (setting [3])) were 0.0041 µM and 0.071 µM, respectively.

As to `C[C@@H](OCCN1CCC(C)(C)CC1)c1ccc(-c2ccc3nnc4c(c3c2)n(C2CCOCC2)c(=O)n4C)cn1` [Example 103, (R)-8-(6-(1-(2-(4,4-dimethylpiperidin-1-yl)ethoxy)ethyl)pyridin-3-yl)-3-methyl-1-(tetrahydro-2H-pyran-4-yl)-1H-imidazo[4,5-c]cinnolin-2(3H)-one], the IC50 on ATM is 0.0039 µM; in experiment [2] (setting [3]), 0.02 µM.

As to `C[C@@H](OCCN1CCC(C)(C)C1)c1ccc(-c2cc3c(cc2F)nnc2c3n(C3CCOCC3)c(=O)n2C)cn1` [Example 153, (R)-8-(6-(1-(2-(3,3-dimethylpyrrolidin-1-yl)ethoxy)ethyl)pyridin-3-yl)-7-fluoro-3-methyl-1-(tetrahydro-2H-pyran-4-yl)-1H-imidazo[4,5-c]cinnolin-2(3H)-one], the values for the IC50 (at ATM; in experiment [2] (setting [3])) were 0.0085 µM and 0.043 µM, respectively.

Turning to `CO[C@@H]1CCN(CCO[C@H](C)c2ccc(-c3ccc4nnc5c(c4c3)n(C(C)C)c(=O)n5C)cn2)C1` [Example 57, 1-isopropyl-8-(6-((R)-1-(2-((R)-3-methoxypyrrolidin-1-yl)ethoxy)ethyl)pyridin-3-yl)-3-methyl-1H-imidazo[4,5-c]cinnolin-2(3H)-one], the results for the IC50 (in experiment [1]; at ATM; in experiment [2] (setting [3])) were 0.019 µM, 0.0042 µM and 0.02 µM, respectively.

As for `COC1CCN(CCO[C@H](C)c2ccc(-c3ccc4nnc5c(c4c3)n(C3CCOCC3)c(=O)n5C)cn2)CC1` [Example 110, (R)-8-(6-(1-(2-(4-methoxypiperidin-1-yL)ethoxy)ethyl)pyridin-3-yl)-3-methyl-1-(tetrahydro-2H-pyran-4-yl)-1H-imidazo[4,5-c]cinnolin-2(3H)-one], the IC50 amounted to 0.0069 µM at ATM and 0.013 µM in experiment [2] (setting [3]).

On to `CC(C)n1c(=O)n(C)c2nnc3ccc(-c4ccc([C@@H](C)OCCN5CCC(F)CC5)nc4)cc3c21` [Example 69, (R)-8-(6-(1-(2-(4-fluoropiperidin-1-yl)ethoxy)ethyl)pyridin-3-yl)-1-isopropyl-3-methyl-1H-imidazo[4,5-c]cinnolin-2(3H)-one], for which the half-maximal inhibitory concentration (IC50) is 0.047 µM in experiment [1], 0.0052 µM at ATM and 0.034 µM in experiment [2] (setting [3]).

As to `CC(C)n1c(=O)n(C)c2nnc3ccc(-c4ccc(COCCN5CC6CC6C5)nc4)cc3c21` (stereo not drawn) [Example 1, 8-(6-((2-(3-azabicyclo[3.1.0]hexan-3-yl)ethoxy)methyl)pyridin-3-yl)-1-isopropyl-3-methyl-1H-imidazo[4,5-c]cinnolin-2(3H)-one], the results for the “Inhibition (% TGI) Combo” value with FaDu xenograft (50 mg/kg PO. TID) and in the experiment on FaDu xenograft (150 mg/kg PO. TID) were 76.8 ± 2.72 % TGI and 92.0 ± 1.31 % TGI, respectively. The IC50 at ATM worked out at 0.016 µM; in experiment [2] (setting [4]) it was 0.04 µM.

Take `COC1CCN(CCO[C@H](C)c2ccc(-c3cc4c(cc3F)nnc3c4n(C(C)C)c(=O)n3C)cn2)CC1` [Example 142, (R)-7-fluoro-1-isopropyl-8-(6-(1-(2-(4-methoxypiperidin-1-yl)ethoxy)ethyl)pyridin-3-yl)-3-methyl-1H-imidazo[4,5-c]cinnolin-2(3H)-one]: the IC50 at ATM was determined as 0.0047 µM; in experiment [2] (setting [3]) it was 0.024 µM.

Turning to `C[C@@H](OCCN1CCC(C(F)(F)F)CC1)c1ccc(-c2ccc3nnc4c(c3c2)n(C2CCOCC2)c(=O)n4C)cn1` [Example 117, (R)-3-methyl-1-(tetrahydro-2H-pyran-4-yl)-8-(6-(1-(2-(4-(trifluoromethyl)piperidin-1-yl)ethoxy)ethyl)pyridin-3-yl)-1H-imidazo[4,5-c]cinnolin-2(3H)-one], the IC50 on ATM turned out to be 0.0037 µM; in experiment [2] (setting [3]), 0.065 µM.

As for `CC(C)n1c(=O)n(C)c2nnc3ccc(-c4ccc([C@@H](C)OCCN5CCC(C)(C)CC5)nc4)cc3c21` [Example 73, (R)-8-(6-(1-(2-(4,4-dimethylpiperidin-1-yl)ethoxy)ethyl)pyridin-3-yl)-1-isopropyl-3-methyl-1H-imidazo[4,5-c]cinnolin-2(3H)-one], the values for the IC50 (in experiment [1]; at ATM; in experiment [2] (setting [4])) were 0.0091 µM, 0.0035 µM and 0.0091 µM, respectively.

With `CC(C)n1c(=O)n(C)c2nnc3cc(F)c(-c4ccc(COCCN5CCC(C)(C)CC5)nc4)cc3c21` [Example 133, 8-(6-((2-(4,4-dimethylpiperidin-1-yl)ethoxy)methyl)pyridin-3-yl)-7-fluoro-1-isopropyl-3-methyl-1H-imidazo[4,5-c]cinnolin-2(3H)-one], the IC50 was determined as 0.013 µM on ATM and 0.044 µM in experiment [2] (setting [3]).

For the origin of these results see patent US20240207263A1, “SELECTIVE MODULATORS OF ATAXIA TELA[…] (ATM) KINASE AND USES THEREOF” (priority 2021, published 2024).
